Source: patent publication US20130184302A1, “METHODS FOR TREATING IRRITABLE BOWEL SYNDROME (IBS) AND INFECTIONS” (priority 2011, published 2013)

Tested on: patients with cirrhosis and overt HE episodes
Experiment: Rates of commonly-occurring infections and antibiotic use in cirrhotic patients with HE on long-term rifaximin
Assay type: in vivo
Description: Cirrhosis patients can have an increased risk of infections and subsequent hospitalizations, leading to increased mortality. […] A description of the OLM and RCT can be found in WO 2011/005388, “METHODS OF TREATING HEPATIC ENCEPHALOPATHY,” which is incorporated herein by reference in its entirety. In the analysis below, the effect of long term RFX treatment on infection rates and antibiotic use was examined.
Patients with cirrhosis and ≧2 overt HE episodes within 12 months were enrolled in the RCT (RFX=140; placebo [PBO]=159); 170 new patients, in addition to 70 RFX and 82 PBO patients who rolled over from the RCT were enrolled in OLM. The “All RFX group” (n=392) consisted of RFX-treated patients in both studies. Infection rates per person exposure years (PEY) were compared across RCT and All RFX groups, and antibiotic use over time was examined.
In the 6 month RCT, RFX exposure was 50 PEY vs 46 PEY in the PBO group. Long term RFX exposure was for median =427 (2-1427) days, or 510 PEY.

## CO[C@H]1/C=C/O[C@@]2(C)Oc3c(C)c(O)c4c(O)c(c5c(nc6cc(C)ccn65)c4c3C2=O)NC(=O)/C(C)=C\C=C\[C@H](C)[C@H](O)[C@@H](C)[C@@H](O)[C@@H](C)[C@H](OC(C)=O)[C@@H]1C [Rifaximin, (2S,16Z,18E,20S,21S,22R, 23R,24R,25S,26S,27S,28E)-5,6,21,23,25 Pentahydroxy-27-methoxy-2,4,11,16,20,22,24,26-octamethyl-2,7-(epoxypentadeca-(1,11,13)trienimino) benzofuro (4,5-e) pyrido(1,2,-a) benzimidazole-1,15(2H)-dione,25-acetate]
All RFX Patients (n = 392), PEY = 510
  C. difficile infection, rate: (0.012) number of subjects/PEY
RCT Patients, RFX (n = 140), PEY = 50
  C. difficile infection, rate: (0.040) number of subjects/PEY
human, in vivo
  Any infection, rate: (0.072) number of subjects/PEY
